According to patent US20150320709A1, “METHODS AND COMPOSITIONS FOR FACILITATING WEIGHT LOSS BY ADMINISTRATION OF THYROID HORMONES” (priority 2011, published 2015):

What was measured:
[1] = Blood pressure and pulse of weight loss program patients on thyroid hormone treatment; format: in vivo, human
Experimental: The first patient example is a person, 5′2″, weight 268 lbs, body mass index (BMI) 49 (nl 19-24; overweight 25-29; obesity≧30). Baseline blood pressure was 110/74, blood sugar (BS) was 153 mg/dL 10 days after their first visit. Their medical problems at baseline included obesity, type 2 diabetes mellitus (DM2), high blood pressure (HTN), fatigue, depression, and asthma. Their medications included glipizide 10 mg daily, amitriptyline 50 mg daily, metoprolol 50 mg daily, furosemide 40 mg daily, potassium chloride, lisinopril 10 mg daily, Advair Discus 500/50 twice daily (bid), and montelukast 10 mg daily. They were started on our comprehensive program. Five months after starting their weight loss treatment, they developed symptoms of hypothyroidism with constipation and fatigue. They had lost 28 lbs by this time and was having difficulty losing more weight even though they were eating less than they were before their weight loss treatment began. At the start of treatment, their FT4 was 0.9 ng/dL (nl 0.7-1.48). At the time of their low thyroid symptoms, their FT3 was 2.9 pg/mL (nl 1.71-3.71) and their FT4 was 0.91 ng/dL (nl 0.7-1.48). They were then treated with thyroid hormone (desiccated thyroid with a ratio of T4:T3 of about 4:1) at 60 mg daily for 6 days to acclimate, then increased to 120 mg daily. […] After two years on their weight loss treatment, their weight was 231 lbs. […] We tested for rT3 at this point. Their labs on the 150 mg dose of desiccated thyroid were: rT3 394 pg/mL (nl 90-350), FT3 3.94 pg/mL (nl 1.71-3.71), and FT4 1.24 ng/dL (nl 0.7-1.48). The task of bringing down their rT3 was then addressed. Over a period of a few months, their desiccated thyroid hormone was discontinued and instead the patient was given gradually increasing doses of T3 only, starting at 20 mcg daily and gradually increasing the T3 to 60 mcg bid. Five months after starting on T3 with increasing doses, their weight had dropped to 209 lbs. Their BP was 118/66 mmHg with pulse of 74 on lisinopril 10 mg daily, metoprolol 50 mg bid, and furosemide 40 mg daily. Instead of glipizide, they were taking metformin 500 mg bid. […] Their most recent labs on 60 mcg bid of T3 were FT3 3.8 pg/mL (nl 1.71-3.71), FT4 0.64 ng/dL (nl 0.7-1.48) and rT3 137 pg/mL (nl 90-350). Four months prior to this visit their BS was 125 mg/dl.
The second patient example is a person, 5′2″, weight 150 lbs, BMI 28 (nl 18.5-24.9; overweight 25-29.9; obesity≧30), with HTN. Their blood pressure was slightly elevated at 148/85 (on lisinopril 5 mg daily). Their medical problems at baseline included history of Hashimoto's thyroiditis, borderline high TSH, elevated lipids, and HTN. Their medications were lisinopril 5 mg daily, estradiol 2 mg daily, and rofecoxib 25 mg daily for osteoarthritis of their large joints. […]

[2] = Body weight of weight loss program patients on thyroid hormone treatment; format: in vivo, human
Experimental: The first patient example is a person, 5′2″, weight 268 lbs, body mass index (BMI) 49 (nl 19-24; overweight 25-29; obesity≧30). Baseline blood pressure was 110/74, blood sugar (BS) was 153 mg/dL 10 days after their first visit. Their medical problems at baseline included obesity, type 2 diabetes mellitus (DM2), high blood pressure (HTN), fatigue, depression, and asthma. Their medications included glipizide 10 mg daily, amitriptyline 50 mg daily, metoprolol 50 mg daily, furosemide 40 mg daily, potassium chloride, lisinopril 10 mg daily, Advair Discus 500/50 twice daily (bid), and montelukast 10 mg daily. They were started on our comprehensive program. Five months after starting their weight loss treatment, they developed symptoms of hypothyroidism with constipation and fatigue. They had lost 28 lbs by this time and was having difficulty losing more weight even though they were eating less than they were before their weight loss treatment began. At the start of treatment, their FT4 was 0.9 ng/dL (nl 0.7-1.48). At the time of their low thyroid symptoms, their FT3 was 2.9 pg/mL (nl 1.71-3.71) and their FT4 was 0.91 ng/dL (nl 0.7-1.48). They were then treated with thyroid hormone (desiccated thyroid with a ratio of T4:T3 of about 4:1) at 60 mg daily for 6 days to acclimate, then increased to 120 mg daily. […] After two years on their weight loss treatment, their weight was 231 lbs. […]

[3] = Patient Example 1, on T3 only, with lisinopril, metoprolol, furosemide
[4] = Patient Example 2, T3 only, 25 mcg bid

N[C@@H](Cc1cc(I)c(Oc2ccc(O)c(I)c2)c(I)c1)C(=O)O [T3, (2S)-2-amino-3-[4-(4-hydroxy-3-iodo-phenoxy)-3,5-diiodo-phenyl]propanoic acid]
BP [1, 3]: 118/66
pulse [1, 3]: 74
pulse [1, 4]: 72
BP ([1]; Patient Example 2, T3 only, 25 mcg bid, on no medications): 122/80
weight ([2]; Patient Example 1, five months after starting T3 only, 20 mcg daily increasing to 60 mcg bid): 209 lbs
weight [2, 4]: 125 lbs
